Patent US9550782B2, “Compounds and methods for treating diabetes” (Medivation Technologies, Inc., priority 2011, dated 2017)
Several values for one entry are separate records, joined by “and”; a condition that tells them apart may be missing. Equal entries are not always repeated.

Legend:
[1] = target: T1, human recombinant adrenergic α2B receptor (Homo sapiens, UniProt P18089); experiment: Radioligand binding, adrenergic α2B ([3H]Rauwolscine); settings: compound at 0.03 μM, repeat datapoints each shown, 0.03 µM
T1 construct: expressed in transfected cells; host or cells: CHO-K1
T1 sequence (P18089 1-450): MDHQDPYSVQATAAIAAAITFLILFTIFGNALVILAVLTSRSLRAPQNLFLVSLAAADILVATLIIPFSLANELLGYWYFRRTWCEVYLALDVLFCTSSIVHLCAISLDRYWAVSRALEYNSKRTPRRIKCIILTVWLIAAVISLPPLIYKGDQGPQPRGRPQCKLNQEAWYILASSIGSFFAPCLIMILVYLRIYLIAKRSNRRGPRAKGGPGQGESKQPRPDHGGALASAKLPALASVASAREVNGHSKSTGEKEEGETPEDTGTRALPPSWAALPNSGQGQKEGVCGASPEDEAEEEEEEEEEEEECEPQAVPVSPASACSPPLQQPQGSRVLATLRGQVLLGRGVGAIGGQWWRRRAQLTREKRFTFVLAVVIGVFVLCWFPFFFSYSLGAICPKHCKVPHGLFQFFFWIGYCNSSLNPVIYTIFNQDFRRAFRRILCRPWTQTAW
Experimental: To evaluate in radioligand binding assays the activity of compounds of the invention, human recombinant adrenergic α2B receptor expressed in Chinese hamster ovary (CHO) K1 cells (Uhlen, S. et al, Eur. J. Pharmacol. 343(1):93, 1998) in a modified Tris-HCl buffer (50 mM Tris-HCl, pH 7.4, 12.5 mM MgCl2, 1 mM EDTA, 0.2% BSA) was used. Compounds of the invention were incubated with 2.5 nM [3H]Rauwolscine for 60 min at 25° C. Non-specific binding was estimated in the presence of 10 μM Prazosin. Receptor proteins were filtered and washed, the filters were then counted to determine [3H]Rauwolscine specifically bound. […] Compounds of the invention were tested in this biochemical assay and percent inhibition of specific binding was determined. Biochemical assay results are presented as the percent inhibition of specific binding in Table B1.

[2] = target: T2, human recombinant adrenergic α2A receptor (Homo sapiens, UniProt P08913); experiment: Radioligand binding, adrenergic α2A ([3H]MK-912); settings: [3H]MK-912, repeat datapoints each shown; for Percentage inhibition of ligand binding, Adrenergic α2A (0.1 μM): compound at 0.1 μM; for Percentage inhibition of ligand binding, Adrenergic α2A (0.03 μM): compound at 0.03 μM
T2 construct: expressed in transfected cells; host or cells: insect Sf9 cells
T2 sequence (P08913 1-465): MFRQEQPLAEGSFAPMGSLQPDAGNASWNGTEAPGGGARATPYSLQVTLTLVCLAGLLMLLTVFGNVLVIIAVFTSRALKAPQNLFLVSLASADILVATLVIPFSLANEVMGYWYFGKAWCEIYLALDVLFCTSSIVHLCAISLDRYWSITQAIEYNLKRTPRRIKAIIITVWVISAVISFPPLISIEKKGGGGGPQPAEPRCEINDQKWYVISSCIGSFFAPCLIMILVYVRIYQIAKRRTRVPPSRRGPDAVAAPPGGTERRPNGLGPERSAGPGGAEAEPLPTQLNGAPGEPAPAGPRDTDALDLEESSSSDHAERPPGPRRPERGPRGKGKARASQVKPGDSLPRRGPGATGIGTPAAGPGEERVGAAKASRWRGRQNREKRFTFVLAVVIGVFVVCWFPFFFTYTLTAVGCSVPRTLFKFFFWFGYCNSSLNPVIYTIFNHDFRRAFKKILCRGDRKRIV
Procedure, shortened: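 Sf9-expressed receptor was incubated with compound for 60 min at 25 °C in modified Tris-HCl buffer, pH 7.4. Nonspecific binding was taken as that remaining with 10 μM WB-4101.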

[3] = target: T3, rat adrenergic α1B receptor (Rattus norvegicus, UniProt P15823); experiment: Radioligand binding, adrenergic α1B ([3H]Prazosin); design: species or system Wistar Rat; settings: repeat datapoints each shown; for Percentage inhibition of ligand binding, Adrenergic α1B (0.1 μM): compound at 0.1 μM; for Percentage inhibition of ligand binding, Adrenergic α1B (0.03 μM): compound at 0.03 μM
T3 construct: rat adrenergic α1B receptor obtained from Wistar Rat liver; from tissue; host or cells: Wistar rat liver
T3 sequence (P15823 1-515): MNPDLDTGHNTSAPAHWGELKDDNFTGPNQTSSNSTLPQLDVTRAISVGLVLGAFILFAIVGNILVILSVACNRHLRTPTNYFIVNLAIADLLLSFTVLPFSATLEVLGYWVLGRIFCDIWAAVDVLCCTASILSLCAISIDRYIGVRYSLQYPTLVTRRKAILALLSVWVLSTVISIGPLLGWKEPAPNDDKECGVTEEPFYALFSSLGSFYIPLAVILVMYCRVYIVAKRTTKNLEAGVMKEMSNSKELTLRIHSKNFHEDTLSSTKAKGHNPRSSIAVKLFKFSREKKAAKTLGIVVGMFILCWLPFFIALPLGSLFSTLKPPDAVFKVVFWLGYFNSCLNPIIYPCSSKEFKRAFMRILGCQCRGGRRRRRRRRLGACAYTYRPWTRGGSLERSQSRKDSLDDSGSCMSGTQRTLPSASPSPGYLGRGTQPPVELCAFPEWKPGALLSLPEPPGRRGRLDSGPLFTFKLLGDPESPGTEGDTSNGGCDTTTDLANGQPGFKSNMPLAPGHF
Procedure, shortened: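 Filter binding with Wistar rat liver α1B preparation: test compound plus 0.25 nM [3H]prazosin, 1 h at 25° C in modified Tris-HCl buffer pH 7.4.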

Row | Percentage inhibition of ligand binding, Adrenergic α2B (0.03 μM) [1] | Percentage inhibition of ligand binding, Adrenergic α2A (0.1 μM) [2] | Percentage inhibition of ligand binding, Adrenergic α1B (0.1 μM) [3] | Percentage inhibition of ligand binding, Adrenergic α2A (0.03 μM) [2] [%] | Percentage inhibition of ligand binding, Adrenergic α1B (0.03 μM) [3] [%] | SMILES
1 | 96% | 28% | 41% |  |  | CN1CCc2c(n(CC(C)(O)c3cccnc3)c3ccc(Cl)cc23)C1 (single isomer, unassigned) [28a]
2 | 37% | 24% | 20% |  |  | CN1CCc2c(n(CC(C)(O)c3cccnc3)c3ccc(Cl)cc23)C1 (single isomer, unassigned) [28b]
3 | 98% and 100% | 35% and 39% | 32% and 38% | 16 | 19 | Cc1ccc2c(c1)c1c(n2CC(C)(O)c2ccc(C)nc2)CCN(C)C1 (single isomer, unassigned) [29a]
4 | 93% and 97% | 19% and 27% | 25% and 28% | 11 | 16 | CN1CCc2c(c3cc(Cl)ccc3n2CC(C)(O)c2cccnc2)C1 (single isomer, unassigned) [31a]
5 | 33% | 8% | 14% |  |  | CCC1c2c(c3cc(C)ccc3n2CC(O)c2ccncc2)C2CCN1C2 (single isomer, unassigned) [36a]
6 | −1% | 0% | 11% |  |  | CCC1c2c(c3cc(C)ccc3n2CC(O)c2ccncc2)C2CCN1C2 (single isomer, unassigned) [36b]
7 | 2% | 18% | −5% |  |  | OC(Cn1c2c(c3cccnc31)CN1CCCC1C2)c1ccncc1 (single isomer, unassigned) [37a]
8 | −3% | −20% | −10% |  |  | OC(Cn1c2c(c3cccnc31)CN1CCCC1C2)c1ccncc1 (single isomer, unassigned) [37b]
9 | 0% | 6% | 2% |  |  | OC(Cn1c2c(c3cccnc31)CN1CCCC1C2)c1ccncc1 (single isomer, unassigned) [37c]
10 | −3% | 8% | 2% |  |  | OC(Cn1c2c(c3cccnc31)CN1CCCC1C2)c1ccncc1 (single isomer, unassigned) [37d]
11 | 35% | 14% | 11% |  |  | Cc1ccc2c(c1)c1c(n2CC(O)c2ccncc2)C(C)N2CCC1C2 (single isomer, unassigned) [38a]
12 | 17% | −1% | 20% |  |  | Cc1ccc2c(c1)c1c(n2CC(O)c2ccncc2)C(C)N2CCC1C2 (single isomer, unassigned) [38b]
13 | 27% | 7% | 2% |  |  | CN1CCc2c(c3ccc(C(F)(F)F)cc3n2CC(O)c2cccnc2)C1 (single isomer, unassigned) [40a]
14 | 29% | 13% | −2% |  |  | CN1CCc2c(c3ccc(C(F)(F)F)cc3n2CC(O)c2cccnc2)C1 (single isomer, unassigned) [40b]
15 | 14% | −9% | 43% |  |  | CN1CCc2c(n(CC(O)c3ccncc3)c3ccc(Cl)cc23)C1 (single isomer, unassigned) [41a]
16 | 50% | 8% | 50% |  |  | CN1CCc2c(n(CC(O)c3ccncc3)c3ccc(Cl)cc23)C1 (single isomer, unassigned) [41b]
17 | 54% | −4% | 23% |  |  | CN1CCc2c(c3cccc(Cl)c3n2CC(O)c2ccncc2)C1 (single isomer, unassigned) [45a]
18 | 96% | 16% | 24% |  |  | CN1CCc2c(c3cccc(Cl)c3n2CC(O)c2ccncc2)C1 (single isomer, unassigned) [45b]
19 | 40% | 10% | 58% |  |  | Cc1ccc2c(c1)c1c(n2CC(O)c2ccncc2)CCN2CCCCC12 (single isomer, unassigned) [47a]
20 | 119% | 41% | 70% |  |  | Cc1ccc2c(c1)c1c(n2CC(O)c2ccncc2)CCN2CCCCC12 (single isomer, unassigned) [47b]
21 | 53% | 4% | 6% |  |  | Cc1ccc2c(c1)c1c(n2CC(O)c2ccncc2)CCN2CCCCC12 (single isomer, unassigned) [47c]
22 | 30% | −3% | 5% |  |  | Cc1ccc2c(c1)c1c(n2CC(O)c2ccncc2)CCN2CCCCC12 (single isomer, unassigned) [47d]
23 | 58% | 12% | 16% |  |  | CN1CCc2c(c3cccc(Br)c3n2CC(O)c2ccncc2)C1 (single isomer, unassigned) [48a]
